Assay results published in the CheMixHub ionic liquid set.

Assay: xn = mol fraction of the nth substance listed
Conditions: for electrical conductivity: 101 kPa; for viscosity: 101.3 kPa

CCCC[N+](CCCC)(CCCC)CCCC.N#C[S-] + CCCOCC(C)O
electrical conductivity [S/m]
Conditions | 248.15 K | 258.15 K | 268.15 K | 278.15 K | 288.15 K | 298.15 K | 308.15 K | 313.15 K
x1 = 0.01119 | 0.0011 | 0.00185 | 0.00285 | 0.00405 | 0.00541 | – | 0.00829 | 0.00901
x1 = 0.01571 | 0.00157 | 0.00271 | 0.00425 | 0.00618 | 0.00842 | 0.01082 | 0.01352 | 0.01485
x1 = 0.01893 | 0.0019 | 0.00331 | 0.00526 | 0.00773 | 0.01064 | 0.01386 | 0.01748 | 0.01934
x1 = 0.02277 | 0.00227 | 0.00401 | 0.00644 | 0.00956 | 0.01332 | 0.01758 | 0.02234 | 0.02493
x1 = 0.02903 | 0.00284 | 0.00511 | 0.00834 | 0.01257 | 0.01775 | 0.02385 | 0.03061 | 0.03428
x1 = 0.03808 | 0.00356 | 0.00652 | 0.01082 | 0.01658 | 0.02379 | 0.03253 | 0.04237 | 0.04779
x1 = 0.04326 | 0.0039 | 0.00723 | 0.01211 | 0.01864 | 0.02705 | 0.0372 | 0.04875 | 0.0548
x1 = 0.06196 | 0.00476 | 0.00908 | 0.01564 | 0.02482 | 0.03669 | 0.05153 | 0.06887 | 0.07879
x1 = 0.07662 | 0.00504 | 0.00979 | 0.01722 | 0.02776 | 0.04173 | 0.05942 | 0.0805 | 0.09266
x1 = 0.09291 | 0.005 | 0.00994 | 0.01782 | 0.02925 | 0.04479 | 0.06473 | 0.08902 | 0.1031
x1 = 0.1099 | 0.00469 | 0.00956 | 0.01751 | 0.02928 | 0.04564 | 0.06699 | 0.09343 | 0.109
x1 = 0.1312 | 0.00408 | 0.00857 | 0.01611 | 0.02768 | 0.04408 | 0.06606 | 0.09376 | 0.1103
x1 = 0.1458 | 0.0036 | 0.00773 | 0.01481 | 0.02593 | 0.0419 | 0.06371 | 0.09151 | 0.1083

CCC[N+](C)(C)C.O=S(=O)([N-]S(=O)(=O)C(F)(F)F)C(F)(F)F + CCC[N+]1(C)CCCC1.O=S(=O)([N-]S(=O)(=O)C(F)(F)F)C(F)(F)F
Conditions | viscosity [mPa·s]
283.15 K, x1 = 0.4 | 135
283.15 K, x1 = 0.6 | 148
283.15 K, x1 = 1 | 179
288.15 K, x1 = 0.6 | 113
288.15 K, x1 = 1 | 133
293.15 K, x1 = 0.4 | 81
303.15 K, x1 = 0.8 | 59
308.15 K, x1 = 0.2 | 42.2
308.15 K, x1 = 0.6 | 46.1
313.15 K, x1 = 0.6 | 38.2
318.15 K, x1 = 0.8 | 33.4
323.15 K, x1 = 0.8 | 28.3
323.15 K, x1 = 1 | 29.5
328.15 K, x1 = 0.2 | 22
328.15 K, x1 = 0.4 | 22.2
328.15 K, x1 = 0.8 | 24.2
333.15 K, x1 = 0.2 | 19.1
333.15 K, x1 = 0.4 | 19.3
333.15 K, x1 = 0.6 | 20.3
333.15 K, x1 = 1 | 21.7
343.15 K, x1 = 0.4 | 14.9
348.15 K, x1 = 0.4 | 13.3
353.15 K, x1 = 0.2 | 11.8
353.15 K, x1 = 0.6 | 12.3
